Results as given in patent US6936630B2, “Substituted 1-aryl-3-heteroaryl-thioureas and substituted 1-aryl-3-heteroaryl-isothioureas as antiatherosclerotic agents” (Wyeth, priority 1997, dated 2005).

What was measured:
serum HDL cholesterol = assay: in vivo test procedure measuring elevation of HDL cholesterol levels in cholesterol/cholic acid-fed rats; parameters: species or system Male Sprague-Dawley rats; conditions: rats fed diet with 0.25% cholic acid and 1.0% cholesterol, 100 mg/kg/day in diet for 8 days, serum HDL cholesterol by FPLC; for change in vivo at 100 mg/kg/day: Rattus norvegicus, feed or water, 192 h, read-out: HDL Cholesterol Level Increase (%)
Method: Representative compounds according to the present invention were evaluated in an in vivo standard pharmacological test procedure which measured the ability of the compounds to elevate HDL cholesterol levels. The following describes the procedure used and results obtained. Male Sprague-Dawley rats weighing 200-225 g were housed two per cage and fed Purina Rodent Chow Special Mix 5001-S supplemented with 0.25% cholic acid and 1.0% cholesterol and water ad libitum for 8 days. Each test substance was administered to a group of six rats fed the same diet with the test diet mixed in as 0.005-0.1% of the total diet. Body weight and food consumption were recorded prior to diet administration and at termination. The test substances were administered at a dosage of 100 mg/kg/day.
At termination, blood was collected from anesthetized rats and the serum was separated by centrifugation. Total serum cholesterol was assayed using the Sigma Diagnostics enzymatic kit for the determination of cholesterol, Procedure No. 352, modified for use with ninety-six well microtiter plates. After reconstitution with water the reagent contains 300 U/l cholesterol oxidase, 100 U/l cholesterol esterase, 1000 U/l horse radish peroxidase, 0.3 mmoles/l 4-aminoantipyrine and 30.0 mmoles/l p-hydroxybenzene sulfonate in a pH 6.5 buffer. In the reaction, cholesterol was oxidized to produce hydrogen peroxide which was used to form a quinoneimine dye. The concentration of dye formed was measured spectrophotometrically by absorbance at 490 nm after incubation at 25° C. for 30 minutes. The concentration of cholesterol was determined for each serum sample relative to a commercial standard from Sigma.
HDL cholesterol concentrations in serum were determined by separation of lipoprotein classes by fast protein liquid chromatography (FPLC) by a modification of the method of Kieft et al., J. Lipid Res., 32 (1991), 859-866. Using this methodology, […] of serum was injected onto Superose 12 and Superose 6 (available from Pharmacia), in series, with a column buffer of 0.05 M Tris (2-amino-2-hydroxymethyl-1,3-propanediol) and 0.15 M sodium chloride at a flow rate of 0.5 mL/min. The eluted sample was mixed on line with Boehringer-Mannheim cholesterol reagent pumped at 0.2 mL/min. The combined eluents were mixed and incubated on line through a knitted coil (available from Applied Biosciences) maintained at a temperature of 45° C. The eluent was monitored by measuring absorbance at 490 nm and gave a continous absorbance signal proportional to the cholesterol concentration. The relative concentration for each lipoprotein class was calculated as the percent of total absorbance. HDL cholesterol concentration in serum, was calculated as the percent of total cholesterol as determined by FPLC multiplied by the total serum cholesterol concentration.
Test compounds were administered at a dose of 100 mg/kg for 8 days.

Compound | melting point | change in vivo at 100 mg/kg/day (serum HDL cholesterol) [%] | HDL Cholesterol Level Increase (%) (serum HDL cholesterol)
Cc1ccc(Cl)cc1NC(=S)Nc1nc2ccccc2s1 [Example 2, 1-(Benzothiazol-2-yl)-3-(5-chloro-2-methyl-phenyl)-thiourea] | – | 6 | –
Cc1ccc(Cl)cc1NC(=S)Nc1nc2ccc3ccccc3c2s1 [Example 3, 1-(5-Chloro-2-methyl-phenyl)-3-(naphtho[2,1-d]thiazol-2-yl)-thiourea] | – | 0.3 | –
Cc1nnc(NC(=S)Nc2cc(Cl)ccc2C)s1 [Example 5, 1-(5-Chloro-2-methyl-phenyl)-3-(5-methyl-[1,3,4]thiadiazol-2-yl)-thiourea] | – | 69 | –
Cc1ccc(Cl)cc1NC(=S)Nc1cc[nH]n1 [Example 7, 1-(5-Chloro-2-methyl-phenyl)-3-(1H-pyrazol-3-yl)-thiourea] | 221 to 222 °C | 97 | –
CCOC(=O)Cc1csc(NC(=S)Nc2cc(Cl)ccc2C)n1 [Example 11, {2-[3-(5-Chloro-2-methyl-phenyl)-thioureido]-thiazol-4-yl}-acetic acid ethyl ester] | 177 to 179 °C | 2 | –
CCc1nnc(NC(=S)Nc2cc(Cl)ccc2C)s1 [Example 14, 1-(5-Chloro-2-methyl-phenyl)-3-(5-ethyl-[1,3,4]thiadiazol-2-yl)-thiourea] | – | 90 | –
Cc1cccc(Cl)c1NC(=S)Nc1c(C)nn(C)c1C [Example 15, 1-(2-Chloro-6-methyl-phenyl)-3-(1,3,5-trimethyl-1H-pyrazol-4-yl)-thiourea] | 201 to 202 °C | 58 | –
Cc1cc(Cl)ccc1NC(=S)Nc1c(C)nn(C)c1C [Example 16, 1-(4-Chloro-2-methyl-phenyl)-3-(1,3,5-trimethyl-1H-pyrazol-4-yl)-thiourea 0.12 solvate with acetic acid ethyl ester] | – | – | 104
Cc1coc(NC(=S)Nc2ccc(Cl)cc2C)n1 [Example 17, 1-(4-Chloro-2-methyl-phenyl)-3-(4-methyl-oxazol-2-yl)-thiourea] | 214 °C (dec.) | 134 | –
Cc1coc(NC(=S)Nc2c(C)cccc2Cl)n1 [Example 18, 1-(2-Chloro-6-methyl-phenyl)-3-(4-methyl-oxazol-2-yl)-thiourea] | 222 °C (dec.) | 193 | –
CCN(C(=S)Nc1cc(Cl)ccc1C)c1c(C)nn(C)c1C [Example 19, 3-(5-Chloro-2-methyl-phenyl)-1-ethyl-1-(1,3,5-trimethyl-1H-pyrazol-4-yl)-thiourea] | 144 to 145 °C | 79 | –
CS/C(=N/c1c(C)nn(C)c1C)Nc1cc(Cl)ccc1C [Example 20, (E)-1-(5-Chloro-2-methyl-phenyl)-2-methyl-3-(1,3,5-trimethyl-1H-pyrazol-4-yl)-isothiourea] | 134 to 135 °C | 35 | –
CCN(C(=Nc1cc(Cl)ccc1C)SC)c1c(C)nn(C)c1C.Cl [Example 21, 3-(5-Chloro-2-methyl-phenyl)-1-ethyl-2-methyl-1-(1,3,5-trimethyl-1H-pyrazol-4-yl)-isothiourea 1:1 salt with hydrochloric acid] | – | – | 29

Continued, in another order:

melting point | Compound | change in vivo at 100 mg/kg/day (serum HDL cholesterol) [%] | HDL Cholesterol Level Increase (%) (serum HDL cholesterol)
197 to 198 °C | Cc1ccc(Cl)cc1NC(=S)Nc1nccs1 [Example 1, 1-(5-Chloro-2-methyl-phenyl)-3-(thiazol-2-yl)-thiourea] | 65 | –
207 to 208 °C | Cc1coc(NC(=S)Nc2cc(Cl)ccc2C)n1 [Example 4, 1-(5-Chloro-2-methyl-phenyl)-3-(4-methyl-oxazol-2-yl)-thiourea] | 158 | –
217 to 218 °C | Cc1ccc(Cl)cc1NC(=S)Nc1ccn(C)n1 [Example 6, 1-(5-Chloro-2-methyl-phenyl)-3-(1-methyl-1H-pyrazol-3-yl)-thiourea] | -11 | –
176 to 177 °C | Cc1ccc(Cl)cc1NC(=S)Nc1c(C)nn(C)c1C [Example 8, 1-(5-Chloro-2-methyl-phenyl)-3-(1,3,5-trimethyl-1H-pyrazol-4-yl)-thiourea] | 110 | –
188 °C | Cc1csc(NC(=S)Nc2cc(Cl)ccc2C)n1 [Example 9, 1-(5-Chloro-2-methyl-phenyl)-3-(4-methyl-thiazol-2-yl)-thiourea] | 79 | –
188 to 189 °C | Cc1ccc(Cl)cc1NC(=S)Nc1nc(C)c(C)s1 [Example 10, 1-(5-Chloro-2-methyl-phenyl)-3-(4,5-dimethyl-thiazol-2-yl)-thiourea] | 41 | –
187 to 188 °C (dec.) | Cc1cc(NC(=S)Nc2cc(Cl)ccc2C)sn1 [Example 12, 1-(5-Chloro-2-methyl-phenyl)-3-(3-methyl-isothiazol-5-yl)-thiourea] | 134 | –
173 to 174 °C | Cc1nc2cc(NC(=S)Nc3cc(Cl)ccc3C)ccc2s1 [Example 13, 1-(5-Chloro-2-methyl-phenyl)-3-(2-methyl-benzothiazol-5-yl)-thiourea] | 36 | –
